From patent publication US20060276477A1, “Treatment method for anemia” (FibroGen, Inc., priority 2005, published 2006)

Assays:
Format in all cases: in vivo
hematocrit = assay: Hematocrit in rats after intermittent dosing for 4 weeks
Method: Male (diamonds in FIG. 2) and female (triangles in FIG. 2) rats were administered various doses (20, 60, 150, 200, 300 mg/kg) of compound A two times per week (e.g., intermittent dosing) for 4 weeks. Hematocrit was determined on day 32.

hemoglobin [1] = assay: Hemoglobin levels in mice on day 8 after oral gavage on day 1, 3 and 5; conditions: for Hemoglobin 6 mg/kg cmpd: 6 mg/kg oral gavage on day 1, 3 and 5, measured day 8; for Hemoglobin 20 mg/kg cmpd: 20 mg/kg oral gavage on day 1, 3 and 5, measured day 8; for Hemoglobin 60 mg/kg cmpd: 60 mg/kg oral gavage on day 1, 3 and 5, measured day 8; for Hemoglobin 2 mg/kg cmpd: 2 mg/kg oral gavage on day 1, 3 and 5, measured day 8
Method: (§1) Mice were administered various doses (2 mg/kg, 6 mg/kg, 20 mg/kg, 60 mg/kg) of compounds of the present invention by oral gavage or by intravenous injection. Circulating levels of EPO were determined […] hours after single-dose administration of compound. Hemoglobin levels were measured in mice on day 8 following administration of compound by oral gavage on day 1, day 3, and day 5.

circulating EPO [2] = assay: Peak circulating (serum) EPO levels in normal monkeys after a single dose; conditions: 8-12 hours after administration
serum EPO = assay: Serum EPO levels in healthy human subjects after compound administration; parameters: EPO AUC (0-24 hours): unit not given beside the values
Method: […] At the indicated times (hours) after compound administration, serum EPO levels were determined.
(§2) Increases in circulating EPO levels following administration of compound A or of rhEPO were compared. Table 3 and Table 2 below show Cmax EPO and EPO Area Under the Curve (AUC) values following intravenous (i.v.) or subcutaneous (s.c.) administration of various doses of rhEPO to human subjects, respectively. […] (See Table 1 below.)

circulating EPO [3] = assay: Circulating EPO levels in mice after oral gavage of compound A
Method: Mice were administered various doses (0, 20, 30, 60 mg/kg) of compound A by oral gavage. Circulating levels of EPO were determined 6 hours after compound administration. […] Administration of 20 mg/kg of compound A increased circulating levels of EPO approximately two-fold.

hemoglobin [4] = assay: Hemoglobin levels in anemic pre-dialysis human subjects with chronic kidney disease; conditions: for Mean change from Baseline Hb Day 42 (or last value carried forward): oral three-times per week for 4 weeks
Method: The effects of compound of the present invention on erythropoiesis in anemic pre-dialysis subjects with advanced stage chronic kidney disease were determined. Study subjects had chronic kidney disease and anemia, having GFR<30 ml/min and Hb<10g/dL. Two anemic pre-dialysis subject populations with chronic kidney disease (CKD) were studied: (1) subjects with no previous exposure to rhEPO (i.e., rhEPO-naive) and (2) subjects who had been receiving continuous rhEPO therapy for at least 8 weeks. In rhEPO-treated subjects, rhEPO administration was discontinued 5-14 days prior to initiation of treatment with compound of the present invention Subjects were orally administered compound A three-times per week for 4 weeks. Erythropoiesis was measured by changes in hemoglobin levels and serum EPO concentrations.

circulating EPO [5] = assay: Circulating EPO levels in mice after single intravenous or oral gavage dose; conditions: 6 hours after administration; for EPO Intravenous: single intravenous dose (dose of the table not stated; 2-60 mg/kg tested); for EPO Oral Gavage: single oral gavage dose (dose of the table not stated; 2-60 mg/kg tested)
Method: as §1

circulating EPO [6] = assay: Circulating EPO levels in bilateral nephrectomized and sham-operated mice
Method: Mice underwent bilateral nephrectomy (BN) surgery (or were sham-operated). Two hours after BN surgery, mice were administered a single oral dose (30 mg/kg) of compound A. Circulating EPO levels were measured 6 hours after compound administration. […] The kidneys produce the majority of endogenous EPO.

[7] = Circulating EPO (Cmax, AUC) after i.v. or s.c. administration of rhEPO to human subjects; conditions: assumes basal endogenous EPO of ~10 mIU/ml
From the text: as §2

Compound: O=C(O)CNC(=O)c1nc(Cl)c2ccccc2c1O [Compound A, [(1-Chloro-4-hydroxy-isoquinoline-3-carbonyl)-amino]-acetic acid]
- hematocrit (hematocrit; male and female rats, 20, 60, 150, 200, 300 mg/kg two times per week for 4 weeks, day 32 (FIG. 2)): increased hematocrit in rats in a dose-dependent manner
- erythropoiesis, as determined by hematocrit (hematocrit; rats, 20 mg/kg two times per week for 4 weeks, day 32): clinically-significant increase in erythropoiesis
- Hemoglobin 6 mg/kg cmpd (hemoglobin [1]): 12.86 g/dL
- Hemoglobin 20 mg/kg cmpd (hemoglobin [1]): 12.92 g/dL
- Hemoglobin 60 mg/kg cmpd (hemoglobin [1]): 13.47 g/dL
- Peak EPO (circulating EPO [2]; single dose 13 mg/kg, pre-dose 2.1): 3.6
- Peak EPO (circulating EPO [2]; single dose 30 mg/kg, pre-dose 0.6): 2.9
- Peak EPO (circulating EPO [2]; single dose 40 mg/kg, pre-dose 0.8): 32.3
- Peak EPO (circulating EPO [2]; single dose 50 mg/kg, pre-dose 0): 21.4
- Peak EPO (circulating EPO [2]; single dose 60 mg/kg, pre-dose 0): 1194.2
- serum EPO levels (serum EPO; healthy human subjects, 3, 6, 10, 15, 20 mg/kg oral (FIG. 3)): increased serum EPO levels in a dose-dependent manner
- EPO AUC (0-24 hours) (serum EPO; human subjects, PHI dose 6 mg/kg): 203.5
- EPO AUC (0-24 hours) (serum EPO; human subjects, PHI dose 10 mg/kg): 331
- EPO AUC (0-24 hours) (serum EPO; human subjects, PHI dose 20 mg/kg): 365.5
- EPO AUC (0-24 hours) (serum EPO; human subjects, PHI dose 30 mg/kg): 508
- circulating EPO levels compared with rhEPO administration (serum EPO; human subjects, therapeutically effective doses of compound A versus rhEPO): substantially lower circulating EPO levels
- circulating levels of EPO (circulating EPO [3]; oral gavage 0, 20, 30, 60 mg/kg, 6 hours after administration (FIG. 1)): increased EPO levels in mice in a dose-dependent manner
- increase of circulating levels of EPO (circulating EPO [3]; oral gavage 20 mg/kg, 6 hours after administration): approximately two-fold
- decrease from mean Hb baseline levels (hemoglobin [4]; CKD subjects after cessation of rhEPO therapy, placebo 1.5 g/dL decrease): 0.9 g/dL
- Mean change from Baseline Hb Day 42 (or last value carried forward) (hemoglobin [4]; CKD subjects previously on rhEPO (discontinued 5-14 days before), mean baseline Hb 11.7 g/dL, placebo −1.5): -0.9 g/dL
- hemoglobin levels versus placebo (hemoglobin [4]; rhEPO-naive CKD subjects, oral three-times per week for 4 weeks (FIG. 5)): hemoglobin levels were higher
- Mean change from Baseline Hb Day 42 (or last value carried forward) (hemoglobin [4]; rhEPO-naive CKD subjects, mean baseline Hb 9.6 g/dL, placebo −0.35, p = 0.036): 1.9 g/dL
- EPO Intravenous (circulating EPO [5]): 1309 mIU/ml
- circulating EPO levels (circulating EPO [6]; bilateral nephrectomized (BN) mice, single oral dose 30 mg/kg two hours after surgery, 6 hours after administration (FIG. 4B)): significant increase in EPO levels
- circulating EPO levels (circulating EPO [6]; sham-operated mice, single oral dose 30 mg/kg, 6 hours after administration (FIG. 4A)): an increase in circulating levels of EPO

Compound: Cc1nc(C(=O)NCC(=O)O)c(O)c2ccc(Oc3ccccc3)cc12 [Compound B, [(4-Hydroxy-1-methyl-7-phenoxy-isoquinoline-3-carbonyl)-amino]-acetic acid]
- Peak EPO (circulating EPO [2]; single dose 3 mg/kg, pre-dose 4.2): 13.1
- Peak EPO (circulating EPO [2]; single dose 30 mg/kg, pre-dose 0): 1534.0
- Peak EPO (circulating EPO [2]; single dose 60 mg/kg, pre-dose 1.2): 2739.8

Compound: COc1ccc(Oc2ccc3c(O)c(C(=O)NCC(=O)O)ncc3c2)cc1 [Compound C, {[4-Hydroxy-7-(4-methoxy-phenoxy)-isoquinoline-3-carbonyl]-amino}-acetic acid]
- Hemoglobin 6 mg/kg cmpd (hemoglobin [1]): 13.68 g/dL
- Hemoglobin 20 mg/kg cmpd (hemoglobin [1]): 14.29 g/dL
- Hemoglobin 60 mg/kg cmpd (hemoglobin [1]): 14.94 g/dL
- EPO Intravenous (circulating EPO [5]): 1663 mIU/ml

Compound: O=C(O)CNC(=O)c1ncc2c(Oc3ccccc3)cccc2c1O [Compound D, [(4-Hydroxy-8-phenoxy-isoquinoline-3-carbonyl)-amino]-acetic acid]
- Hemoglobin 2 mg/kg cmpd (hemoglobin [1]): 14.1 g/dL
- Hemoglobin 6 mg/kg cmpd (hemoglobin [1]): 13.98 g/dL
- Hemoglobin 20 mg/kg cmpd (hemoglobin [1]): 14.55q g/dL
- EPO Intravenous (circulating EPO [5]): 5473 mIU/ml
- EPO Oral Gavage (circulating EPO [5]): 1201 mIU/ml

Compound: Cc1nc(C(=O)NCC(=O)O)c(O)c2cccc(Oc3ccccc3)c12 [Compound E, [(4-Hydroxy-1-methyl-8-phenoxy-isoquinoline-3-carbonyl)-amino]-acetic acid]
- Hemoglobin 2 mg/kg cmpd (hemoglobin [1]): 12.23 g/dL
- Hemoglobin 6 mg/kg cmpd (hemoglobin [1]): 13.29 g/dL
- Hemoglobin 20 mg/kg cmpd (hemoglobin [1]): 13.41 g/dL
- Hemoglobin 60 mg/kg cmpd (hemoglobin [1]): 15.9 g/dL
- EPO Intravenous (circulating EPO [5]): 2976 mIU/ml
- EPO Oral Gavage (circulating EPO [5]): 744 mIU/ml

Compound: Cc1nc(C(=O)NCC(=O)O)c(O)c2ccc(Cl)cc12 [Compound F, [(7-Chloro-4-hydroxy-1-methyl-isoquinoline-3-carbonyl)-amino]-acetic acid]
- Hemoglobin 6 mg/kg cmpd (hemoglobin [1]): 13.66 g/dL
- Hemoglobin 20 mg/kg cmpd (hemoglobin [1]): 14.15 g/dL
- Hemoglobin 60 mg/kg cmpd (hemoglobin [1]): 17.74 g/dL
- EPO Intravenous (circulating EPO [5]): 3967 mIU/ml

Compound: Cc1nc(C(=O)NCC(=O)O)c(O)c2cccc(Oc3ccc(F)cc3)c12 [Compound G, {[8-(4-Fluoro-phenoxy)-4-hydroxy-1-methyl-isoquinoline-3-carbonyl]-amino}-acetic acid]
- Hemoglobin 2 mg/kg cmpd (hemoglobin [1]): 14.39 g/dL
- Hemoglobin 6 mg/kg cmpd (hemoglobin [1]): 13.13 g/dL
- Hemoglobin 20 mg/kg cmpd (hemoglobin [1]): 14.85 g/dL
- Hemoglobin 60 mg/kg cmpd (hemoglobin [1]): 17.7 g/dL
- EPO Intravenous (circulating EPO [5]): 10969 mIU/ml
- EPO Oral Gavage (circulating EPO [5]): 2546 mIU/ml

Compound: N#Cc1nc(C(=O)NCC(=O)O)c(O)c2sccc12 [Compound H, [(4-cyano-7-hydroxy-thieno[3,2-c]pyridine-6-carbonyl)-amino]-acetic acid]
- Hemoglobin 2 mg/kg cmpd (hemoglobin [1]): 12.67 g/dL
- Hemoglobin 6 mg/kg cmpd (hemoglobin [1]): 13.65 g/dL
- Hemoglobin 20 mg/kg cmpd (hemoglobin [1]): 13.53 g/dL
- Hemoglobin 60 mg/kg cmpd (hemoglobin [1]): 14.2 g/dL
- EPO Intravenous (circulating EPO [5]): 1242 mIU/ml
- EPO Oral Gavage (circulating EPO [5]): 608 mIU/ml

Compound: rhEPO: recombinant human erythropoietin (rhEPO), an erythropoiesis stimulating protein; current therapy for anemia
- Cmax EPO ([7]; rhEPO 10 U/kg i.v.): 181 mIU/ml
- Cmax EPO ([7]; rhEPO 50 U/kg i.v.): 1,430 mIU/ml
- Cmax EPO ([7]; rhEPO 150 U/kg i.v.): 4,438 mIU/ml
- Cmax EPO ([7]; rhEPO 300 U/kg s.c.): 429 mIU/ml
- Cmax EPO ([7]; rhEPO 450 U/kg s.c.): 1,263 mIU/ml
- Cmax EPO ([7]; rhEPO 500 U/kg i.v.): 16,257 mIU/ml
- Cmax EPO ([7]; rhEPO 600 U/kg s.c.): 1,263 mIU/ml
